Our source for the IC50 values is patent publication US12384776B2, “Compounds and uses thereof” (Foghorn Therapeutics Inc., priority 2019, dated 2025).

Molecules are shown by their SMILES. Some results are limits rather than exact numbers.

This experiment deals with Nanoluciferase-BRD9 fusion protein (3×FLAG-NLuc-BRD9) in SYO-1 cells (Homo sapiens (Human), UniProt Q9H8M2). Description: SYO1 BRD9 NanoLuc degradation assay. Type of experiment: cell-based. In short, it runs like this:
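Stable SYO-1 line expressing 3×FLAG-NLuc-BRD9, treated with 10-point 3-fold dilutions (top 1 μM final) for 6 hours. Nanoluciferase luminescence read with Nano-Glo reagent. % inhibition relative to DMSO (high control) and 1 μM reference BRD9 degrader (low control).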

The mark [1] stands for this setting: SYO-1 cells expressing 3×FLAG-NLuc-BRD9, 6 hours incubation, top dose 1 μM.

Sequence of Nanoluciferase-BRD9 fusion protein (3×FLAG-NLuc-BRD9) in SYO-1 cells (Q9H8M2 whole entry, the tested form may be a part): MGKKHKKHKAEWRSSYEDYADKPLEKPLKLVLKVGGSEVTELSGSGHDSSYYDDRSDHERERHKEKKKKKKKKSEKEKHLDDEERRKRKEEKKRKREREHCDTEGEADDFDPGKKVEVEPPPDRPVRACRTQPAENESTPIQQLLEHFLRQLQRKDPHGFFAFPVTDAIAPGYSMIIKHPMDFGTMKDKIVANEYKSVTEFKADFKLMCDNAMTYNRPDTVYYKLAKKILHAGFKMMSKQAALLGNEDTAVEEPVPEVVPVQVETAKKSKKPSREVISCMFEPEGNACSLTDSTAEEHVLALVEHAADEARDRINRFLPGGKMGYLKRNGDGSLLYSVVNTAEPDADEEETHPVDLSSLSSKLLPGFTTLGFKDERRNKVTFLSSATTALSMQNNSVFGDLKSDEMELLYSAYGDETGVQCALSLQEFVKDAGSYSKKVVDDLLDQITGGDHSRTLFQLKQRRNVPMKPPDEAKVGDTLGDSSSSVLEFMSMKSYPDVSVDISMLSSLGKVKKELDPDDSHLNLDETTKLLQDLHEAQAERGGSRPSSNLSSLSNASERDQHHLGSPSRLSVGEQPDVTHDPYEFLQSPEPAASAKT

Under setting [1], `CNC(=O)N1CCc2c(-c3cc(OC)c(CN4CCN(C5CNC5)CC4)c(OC)c3)cn(C)c(=O)c2C1` [Compound B23] displayed an IC50 of no less than 1000 nM.
Take `CNC(=O)N1CCc2c(-c3cc(OC)c(CN4CCN(CCC5CCN(c6ccc7c(c6)C(=O)N(C6CCC(=O)NC6=O)C7=O)CC5)CC45COC5)c(OC)c3)cn(C)c(=O)c2C1` (stereo not shown) [Compound D98]: the IC50 under setting [1] was less than 10 nM.
Consider `COc1cc(-c2cn(C)c(=O)c3c2CCC3)cc(OC)c1CN1CCN(c2ccc3c(c2)C(=O)N(C2CCC(=O)NC2=O)C3=O)CC1` (stereo not shown) [Compound D366], for which the IC50 (SYO-1 cells, 6 hours, Table 6C) was less than 10 nM.
`COc1cc(-c2cn(C)c(=O)c3c2CCN(C(=O)NC2CCC4(CCN(CCOc5ccc6c(c5)C(=O)N(C5CCC(=O)NC5=O)C6=O)C4)C2)C3)cc(OC)c1CN(C)C` (stereo not shown) [Compound D215] showed an IC50 under setting [1] of 100 to 1000 nM.
The same measure, in the same setting: the same measure for `COc1cc(-c2cn(C)c(=O)c3c2CCN(C(=O)NCC2CC4(C2)CN(CCOc2ccc5c(c2)C(=O)N(C2CCC(=O)NC2=O)C5=O)C4)C3)cc(OC)c1CN(C)C` (stereo not shown) [Compound D268]: 10 to 100 nM; for `CNC(=O)N1CCc2c(-c3cc(OC)c(CN4CCC(CCN5CCN(c6cc(F)c7c(c6)C(=O)N(C6CCC(=O)NC6=O)C7=O)CC5)CC4)c(OC)c3)cn(C)c(=O)c2C1` (stereo not shown) [Compound D86]: less than 10 nM; for `COc1cc(-c2cn(C)c(=O)c3c2CCN(C(=O)NC2CCC4(CCN(CCCN5CCN(c6ccc7c(c6)C(=O)N(C6CCC(=O)NC6=O)C7=O)CC5)C4)C2)C3)cc(OC)c1CN(C)C` (stereo not shown) [Compound D214]: 100 to 1000 nM.
Still for that read-out and setting: the result for `CNC(=O)N1CCc2c(-c3cc(OC)c(CN(C)CCOCCN4CCN(c5ccc6c(c5)C(=O)N(C5CCC(=O)NC5=O)C6=O)CC4)c(OC)c3)cn(C)c(=O)c2C1` (stereo not shown) [Compound D284] reads 10 to 100 nM.
Take `CNC(=O)N1CCc2c(-c3cc(OC)c(CN4[C@H](C)CN(CCC5CCN(c6ccc7c(c6)CN(C6CCC(=O)NC6=O)C7=O)CC5)C[C@H]4C)c(OC)c3)cn(C)c(=O)c2C1` (stereo partly shown) [Compound D325]: where the note is “SYO-1 cells, 6 hours, Table 6C”, the IC50 was less than 10 nM.
`CNC(=O)N1CCc2c(-c3cc(OC)c(CN4CCC5(CC4)CN(C(=O)CCCOc4cccc6c4C(=O)N(C4CCC(=O)NC4=O)C6=O)CCO5)c(OC)c3)cn(C)c(=O)c2C1` (stereo not shown) [Compound D3, 5-(4-[[4-(4-[[2-(2,6-dioxopiperidin-3-yl)-1,3-dioxoisoindol-4-yl]oxy]butanoyl)-1-oxa-4,9-diazaspiro[5.5]undecan-9-yl]methyl]-3,5-dimethoxyphenyl)-N,7-dimethyl-8-oxo-3,4-dihydro-1H-2,7-naphthyridine-2-carboxamide]: where the note is “SYO-1 cells, 6 hours, Table 6A”, the IC50 is greater than 100 nM.
The molecule `CNC(=O)N1CCc2c(-c3cc(OC)c(CN4CC(CC(=O)N5CCC6(CC5)CC(Oc5ccc7c(c5)C(=O)N(C5CCC(=O)NC5=O)C7=O)C6)C4)c(OC)c3)cn(C)c(=O)c2C1` (stereo not shown) [Compound D275] yielded an IC50 under setting [1] of 10 to 100 nM.
Same read-out and setting: the result for `CNC(=O)N1CCc2c(-c3cc(OC)c(CN4CCC(C(C)N5CCC6(CC5)CC(Oc5ccc7c(c5)C(=O)N(C5CCC(=O)NC5=O)C7=O)C6)CC4)c(OC)c3)cn(C)c(=O)c2C1` (stereo not shown) [Compound D128] reads less than 10 nM.
`CNC(=O)N1CCc2c(-c3cc(OC)c(CN4CCC5(CN(c6ccc7c(c6)C(=O)N(C6CCC(=O)NC6=O)C7)C5)C(C)C4)c(OC)c3)cn(C)c(=O)c2C1` (stereo not shown) [Compound D304] came in with an IC50 (SYO-1 cells, 6 hours, Table 6C) of less than 10 nM.
`COc1cc(-c2cn(C)c(=O)c3c2CCN(C(=O)NCCCN2CCC4CCN(c5ccc6c(c5)C(=O)N(C5CCC(=O)NC5=O)C6=O)C4C2)C3)cc(OC)c1CN(C)C` (stereo not shown) [Compound D234] yielded an IC50 under setting [1] of 10 to 100 nM.
`CNC(=O)N1CCc2c(-c3cc(OC)c(C4CN(c5ccc6c(c5)C(=O)N(C5CCC(=O)NC5=O)C6=O)C4)c(OC)c3)cn(C)c(=O)c2C1` (stereo not shown) [Compound D303] had a concentration for half-maximal inhibition (IC50) (SYO-1 cells, 6 hours, Table 6C) of less than 10 nM.
On to `CNC(=O)N1CCc2c(-c3cc(OC)c(CN4CCC(CCN5CC6CN(c7ccc8c(c7)C(=O)N(C7CCC(=O)NC7=O)C8=O)CC6C5)CC4)c(OC)c3)cn(C)c(=O)c2C1` (stereo not shown) [Compound D196], for which the IC50 under setting [1] is less than 10 nM.
Still for that read-out and setting: the result for `CNC(=O)N1CCc2c(-c3cc(OC)c(CN4CCN(CCC5CCN(c6ccc7c(c6)C(=O)N(C6CCC(=O)NC6=O)C7=O)CC5)CC4(C)C)c(OC)c3)cn(C)c(=O)c2C1` (stereo not shown) [Compound D102] reads less than 10 nM.
In the case of `COc1cc(-c2cn(C)c(=O)c3c2CCN(C(=O)NCC(F)F)C3)cc(OC)c1CN1CCN(CCC2CCN(c3ccc4c(c3)C(=O)N(C3CCC(=O)NC3=O)C4)CC2)CC12CC2` (stereo not shown) [Compound D312], the half-maximal inhibitory concentration (IC50) (SYO-1 cells, 6 hours, Table 6C) was less than 10 nM.
`COc1cc(-c2cn(C)c(=O)c3c2CCN(C(=O)NC2CC4(CCN(CCCCN5CCN(c6ccc7c(c6)C(=O)N(C6CCC(=O)NC6=O)C7=O)CC5)C4)C2)C3)cc(OC)c1CN(C)C` (stereo not shown) [Compound D226] showed an IC50 under setting [1] of 10 to 100 nM.
Same read-out and setting: the result for `COc1cc(-c2cn(C)c(=O)c3c2CCN(C(=O)NCCCN2CCC4(CCN(c5ccc6c(c5)C(=O)N(C5CCC(=O)NC5=O)C6=O)C4)C2)C3)cc(OC)c1CN(C)C` (stereo not shown) [Compound D208] reads 10 to 100 nM; that for `COc1cc(-c2cn(C)c(=O)c3c2CCN(C(=O)NCC2CC24CCN(CCCOc2ccc5c(c2)C(=O)N(C2CCC(=O)NC2=O)C5=O)CC4)C3)cc(OC)c1CN(C)C` (stereo not shown) [Compound D242], 100 to 1000 nM.
On the same count and under the same terms, the same measure for `COc1cc(-c2cn(C)c(=O)c3c2CCN(C(=O)NC2CC4(C2)CN(CCCOc2ccc5c(c2)C(=O)N(C2CCC(=O)NC2=O)C5=O)C4)C3)cc(OC)c1CN(C)C` (stereo not shown) [Compound D263]: 100 to 1000 nM; for `COc1cc(-c2cn(C)c(=O)c3c2CCN(C(=O)NCC2CC4CN(c5ccc6c(c5)C(=O)N([C@@H]5CCC(=O)NC5=O)C6=O)CC4C2)C3)cc(OC)c1CN(C)C` (stereo partly shown) [Compound D123]: less than 10 nM.
`CNC(=O)N1CCc2c(-c3cc(OC)c(CN4CCC(CCN(C)C5CCCN(c6ccc7c(c6)C(=O)N(C6CCC(=O)NC6=O)C7=O)C5)CC4)c(OC)c3)cn(C)c(=O)c2C1` (stereo not shown) [Compound D173] had an IC50 under setting [1] of less than 10 nM.
The same measure, in the same setting: the result for `CNC(=O)N1CCc2c(-c3cc(OC)c(CN(C)c4ccc5c(c4)C(=O)N(C4CCC(=O)NC4=O)C5=O)c(OC)c3)cn(C)c(=O)c2C1` (stereo not shown) [Compound D112] reads less than 10 nM; that for `COc1cc(-c2cn(C)c(=O)c3c2CCN(C(=O)NCCN2CCC4(CC2)CCN(c2ccc5c(c2)C(=O)N(C2CCC(=O)NC2=O)C5=O)C4)C3)cc(OC)c1CN(C)C` (stereo not shown) [Compound D209], 10 to 100 nM.
Same read-out and setting: the result for `CNC(=O)N1CCc2c(-c3cc(OC)c(CNC4CC5(C4)CN(c4ccc6c(c4)C(=O)N(C4CCC(=O)NC4=O)C6=O)C5)c(OC)c3)cn(C)c(=O)c2C1` (stereo not shown) [Compound D158] reads less than 10 nM.
The same measure, in the same setting: the result for `CNC(=O)N1CCc2c(-c3cnc(CN4CCC(CCN5CCN(c6ccc7c(c6)C(=O)N(C6CCC(=O)NC6=O)C7=O)CC5)CC4)c(OC)c3)cn(C)c(=O)c2C1` (stereo not shown) [Compound D92] reads 10 to 100 nM.
`CNC(=O)N1CCc2c(-c3cc(OC)c(CN4CCC(CCN5C(C)CC(c6ccc7c(c6)C(=O)N(C6CCC(=O)NC6=O)C7=O)CC5C)CC4)c(OC)c3)cn(C)c(=O)c2C1` (stereo not shown) [Compound D342] displayed an IC50 (SYO-1 cells, 6 hours, Table 6C) of less than 10 nM.
For the molecule `CNC(=O)N1Cc2c(c(-c3cc(OC)c(CN4CCN(CCC5CCN(c6ccc7c(c6)C(=O)N(C6CCC(=O)NC6=O)C7=O)CC5)CC4)c(OC)c3)cn(C)c2=O)CC1C` (stereo not shown) [Compound D41], the IC50 under setting [1] is less than 10 nM.
Where the note is “SYO-1 cells, 6 hours, Table 6C”, `COc1cc(-c2cn(C)c(=O)c3c2CCC3)cc(OC)c1CN1CCC(CN2CCC3(CC2)CN(c2ccc4c(c2)C(=O)N(C2CCC(=O)NC2=O)C4)C3)CC1` (stereo not shown) [Compound D353] registered an IC50 of less than 10 nM.
